The values below come from paper PMC7536072, “Molecular and functional characterization of somatostatin-type signalling in a deuterostome invertebrate” (Open Biology, 2020).

The subject of assay [1] is cardiac stomach preparations from A. rubens. Put plainly: in vitro relaxation of cardiac stomach preparations. Further details: species or system Asterias rubens. As to conditions: n = 6. Here is the method:
Synthetic ArSS2 ([…], with a disulfide bridge between the cysteine residues) was custom synthesized (Peptide Protein Research Ltd, Fareham, UK) to enable testing of its pharmacological effects on in vitro preparations of organs/muscles from A. rubens. ArSS2 was tested for its in vitro effects on the contractility of tube foot, apical muscle and cardiac stomach preparations from at least six different specimens of A. rubens. Individual tube foot preparations were dissected from starfish arms with their corresponding ampulla intact. Then cotton ligatures were tied around the ambulacral body wall and the tube foot disc and then the external epithelium of the tube foot was scraped off using a blunt scalpel blade to facilitate penetration of peptides when tested in vitro, as described previously. Apical muscle preparations were dissected from the aboral body wall with approximately 1 cm strips of apical muscle tied at each end with cotton ligatures. Cardiac stomach preparations were dissected as described previously and then were tied at the aboral side of the cardiac stomach and around the oesophagus with cotton ligatures. The dissected preparations were tied to a fixed metal hook orally and to a high-grade isotonic transducer (MLT0015; ADInstruments Ltd; Oxford, UK) aborally, suspended in a 20 ml aerated organ bath containing artificial seawater at approximately 11°C. The transducer was connected via a bridge amplifier (FE221 Bridge Amp, ADInstruments Ltd, Oxford, UK) to data acquisition hardware (PowerLab 2/36, ADInstruments Ltd, Oxford, UK). Data collected from PowerLab were visualized as traces and analysed using LabChart (v. 8.0.7) software installed on a laptop computer (Lenovo E540, Windows 7 Professional).
To examine the effects of ArSS2 on tube foot and cardiac stomach preparations, 10^−6 M acetylcholine (ACh) or artificial seawater (ASW) containing 30 mM added KCl was used to induce contraction of these preparations, respectively. Once a stable baseline contracted state was achieved, synthetic ArSS2 was added into the organ bath to sequentially achieve final concentrations in the range of 10^−10 to 10^−6 M. For these experiments, the contracting effect of 10^−6 M ACh or ASW containing 30 mM added KCl was defined as 100% and the relaxing effects of ArSS2 were then calculated as a percentage reversal of the 100% contracted state.
Experiments were performed where the effects of ArSS2, S2 and asterotocin (at 10^−7 and 10^−6 M) on cardiac stomach preparations (n = 6) were compared. For these experiments, the effect of 10^−7 or 10^−6 M S2 was defined as 100% and the effect of asterotocin or ArSS2 was calculated as a % of the effect of S2. To determine if there were significant differences in magnitude of the relaxing effects of the three peptides on cardiac stomach preparations, data were analysed statistically using a two-tailed Student's t-test in Prism 6.

Assay [2] has the same test system. The settings on record: cited from earlier work; for cardiac stomach relaxant activity: ref [64],[67]. An excerpt:
Likewise, ArSS2 caused dose-dependent relaxation of cardiac stomach preparations at concentrations between ... || ArSS2 is widely expressed in the digestive system of A. rubens, including the peristomial membrane, cardiac stomach, pyloric stomach, pyloric duct, and pyloric caeca. In the cardiac stomach, ArSSP2 transcripts are detected in cells located in the mucosa layer and ArSS2-immunoreactivity is present in the adjacent basi-epithelial nerve plexus. Consistent with this expression of ArSS2 in the cardiac stomach, ArSS2 causes dose-dependent relaxation of cardiac stomach preparations.

The subject of assay [3] is cardiac stomach of A. rubens. As to conditions: cited from earlier work. The text has this:
When starfish (A. rubens) feed, the cardiac stomach is relaxed and everted out of the mouth over the digestible soft tissues of prey (e.g. mussels). […] Therefore, because ArSS2 causes relaxation of cardiac stomach preparations in vitro, we investigated if ArSS2 also triggers cardiac stomach eversion when injected in vivo. Firstly, 15 medium-sized starfish were starved for one week to norm ... || Asterias rubens feeds by everting its cardiac stomach through a narrow oral opening (mouth) and over the digestible parts of its prey, and for this to be accomplished, the cardiac stomach must be in a relaxed state. Neuropeptides that cause cardiac stomach in vitro are therefore potential mediators of cardiac stomach eversion in vivo. […] Therefore, here we investigated if ArSS2 also triggers cardiac stomach ever ... || The in vitro relaxing effect of ArSS2 on the cardiac stomach of A. rubens is of interest from a physiological/behavioural perspective because relaxation of the cardiac stomach is required for the extraoral feeding behaviour of starfish where it is everted out of the mouth and over the digestible soft tissue of prey such as mussels.

For assay [4], the system named is cardiac stomach of A. rubens. In words: in vivo cardiac stomach eversion after injection into the perivisceral coelom. The settings on record: 10 µl 10^−3 M into perivisceral coelom, n = 10. Further details: species or system Asterias rubens. On the procedure:
When starfish (A. rubens) feed, the cardiac stomach is relaxed and everted out of the mouth over the digestible soft tissues of prey (e.g. mussels). […] Therefore, because ArSS2 causes relaxation of cardiac stomach preparations in vitro, we investigated if ArSS2 also triggers cardiac stomach eversion when injected in vivo. Firstly, 15 medium-sized starfish were starved for one week to normalize their physiological status. A Hamilton […] 50 μl syringe (Sigma-Aldrich; Gillingham, UK) was used to inject 10 μl 1 mM ArSS2, or 10 μl 1 mM asterotocin (positive control) or 10 μl water (negative control) into the […] coelom of starfish. ArSS2 was tested on five individuals firstly and then the next day, asterotocin was tested on the same batch of five individuals. For another five individuals, asterotocin was tested first and then ArSS2 was tested on the following day. The remaining five individuals were injected with water as a control. Thus, both ArSS2 and asterotocin were tested on ten starfish. For each starfish, the test agent was injected via two sites in the dorsal body wall of the arms proximal to the junctions with the central disc region. Care was taken to inject test agents into the […] coelom and not into the cardiac stomach.

Assay [5] deals with tube foot preparations from A. rubens. As to conditions: ref [67]; cited from earlier work.
Assay [6] has as its system apical muscle preparations from A. rubens. As to conditions: ref [67]; cited from earlier work.
For the next assay, the system named is ArSSR1. In words: GFP-aequorin luminescence receptor activation assay, CHO-K1 cells, ArSSR1 + Gα16. The assay is classed as cell-based, Asterias rubens. The settings on record: ArSSR1.
In another assay the test system is ArSSR2. Put plainly: GFP-aequorin luminescence receptor activation assay, CHO-K1 cells, ArSSR2 + Gα16. It is filed as cell-based, Asterias rubens. As to conditions: ArSSR2.
For the next assay, the system named is ArSSR3. Put plainly: GFP-aequorin luminescence receptor activation assay, CHO-K1 cells, ArSSR3 + Gα16. It is filed as cell-based, Asterias rubens. The settings on record: ArSSR3.
Chain of ArSSR3 (as listed by the source): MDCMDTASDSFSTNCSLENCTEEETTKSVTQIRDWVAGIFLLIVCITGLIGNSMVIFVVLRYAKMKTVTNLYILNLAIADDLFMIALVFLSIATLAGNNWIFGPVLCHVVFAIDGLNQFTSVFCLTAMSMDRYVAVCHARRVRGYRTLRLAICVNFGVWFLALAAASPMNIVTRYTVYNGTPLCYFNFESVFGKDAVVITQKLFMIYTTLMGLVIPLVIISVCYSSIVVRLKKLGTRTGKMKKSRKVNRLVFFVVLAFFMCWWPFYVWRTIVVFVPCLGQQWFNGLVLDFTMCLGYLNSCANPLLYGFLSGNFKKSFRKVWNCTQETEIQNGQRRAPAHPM
Assay [7] deals with CHO-K1 cells transfected with an empty pcDNA3.1(+) vector. Put plainly: luminescence control assay, CHO-K1 cells transfected with empty vector. It is filed as cell-based, Chinese hamster. The settings on record: 10^-12 to 10^-5 M (figure S12), 0.1 % Triton X-100 = 100%. On the procedure:
In order to characterize the candidate SS-type receptors, a G-protein-dependent receptor activation assay was employed. Chinese hamster ovary (CHO)-K1 cells stably overexpressing the calcium-sensitive bioluminescent reporter GFP-aequorin fusion protein (G5A) were used as a heterologous expression system. Plasmids containing A. rubens SS-type receptor cDNAs were co-transfected with the promiscuous human Gα16, which is widely used for receptor deorphanization assays. […] After 3 h incubation, a fixed volume of cells was injected sequentially into each well containing different concentrations of peptides using a FLUOstar Omega Plate Reader (BMG LABTECH, Ortenberg, Germany). Luminescence values were recorded over a 35 s period after injection. The total luminescence of each well over the 35 s period was calculated and normalized to the maximum value obtained in each experiment (100% activation) and to the value obtained with the vehicle media (0% activation). […] EC50 values were calculated from dose–response curves using Prism 6. The luminescence responses triggered by 10^−5 M ArSS1, 10^−5 M ArSS2 and vehicle media were analysed by one-way ANOVA using Bonferroni's multiple comparisons post hoc test in Prism 6. […]

Setting [8] is: injected in vivo, ref [66],[67].
Where [9] appears, read: 10^−5 M, vs BSA media (control) and, for ArSS2, vs ArSS1, one-way ANOVA, Bonferroni.

Entries after “also recorded” stand apart in the source; their conditions may differ. Read-outs that look alike come from different tables or passages of the source. Bridges are numbered along the chain shown (N, C = ends). Where no end group is shown, it is not given here.

Regarding “SGPYSFNSGLTF-NH2 [S2, SALMFamide neuropeptide S2 (…-NH2)]”, the “magnitude of cardiac stomach relaxing action relative to asterotocin” value in assay [1] (10^−6 M, KCl-contracted, mean) was “approximately 50 % of the effect of asterotocin”. Also, the “cardiac stomach relaxant activity” value in [2] is “act as cardiac stomach relaxants”. In assay [2] (tube foot and/or cardiac stomach, ref [64],[66]), the “relaxation of tube foot and/or cardiac stomach preparations” value is recorded as “cause relaxation of tube foot and/or cardiac stomach preparations”. For the same substance, the cardiac stomach eversion result in [3] (setting [8]) is listed as “induce cardiac stomach eversion when injected in vivo”.

For the substance “CLVQDCPEG-NH2 (disulfide 1-6 (inferred)) [asterotocin, reference compound]”, the “relaxing effect compared with S2” value in assay [1] (10^−6 M, two-tailed Student's t-test p = 0.0255) is listed as “significantly larger than the effect S2”; in assay [1] (10^−7 M, two-tailed Student's t-test p = 0.0055) it was “significantly larger than the effect of S2”. Also, the “relaxing effect compared with ArSS2” value in assay [1] (10^−6 M, two-tailed Student's t-test p = 0.0483) was “significantly larger”; in assay [1] (10^−7 M, two-tailed Student's t-test p = 0.0250), “significantly larger”. Further, the “magnitude of cardiac stomach relaxing action relative to S2” value in assay [1] (10^−7 M, KCl-contracted, mean) is recorded as 3.5 times the effect of S2. For the same substance, the “mean maximal eversion, area of everted cardiac stomach” value in assay [4] (10 min recording) is ~125 % of the area of the central disc region. The “incidence of cardiac stomach eversion” value in assay [4] is reported as “all of the animals”. Also, in assay [4], the “time of mean maximal eversion after injection” value is “approximately 9 min”. In addition, the “relaxation of tube foot preparations” value in [5] was “caused relaxation of cardiac stomach and apical muscle preparations but not tube feet”. Also, the “cardiac stomach relaxant activity” value in assay [2] is on record as “act as cardiac stomach relaxants”. Moreover, the “effectiveness as cardiac stomach relaxant compared with S2” value in assay [2] (ref [67]) is given as “much more effective as a cardiac stomach relaxant than S2”. In [2] (ref [67]), the “relaxation of cardiac stomach preparations” value was “caused relaxation of cardiac stomach and apical muscle preparations but not tube feet”. In addition, in assay [6], the “relaxation of apical muscle preparations” value was “caused relaxation of cardiac stomach and apical muscle preparations but not tube feet”. For the same substance, the cardiac stomach eversion result in [3] (100 µl 10^−3 M into perivisceral coelom, ref [67]) is “complete eversion of the cardiac stomach”; in [3] (setting [8]), “induce cardiac stomach eversion when injected in vivo”. Further, in assay [3] (ref [67]), the “effectiveness and potency in triggering cardiac stomach eversion compared with S2” value is “much more effective and potent than S2”.

Consider “KCIGRFQPFSMPC (disulfide 2-13 (inferred)) [ArSS1, 13-residue SS-type neuropeptide of Asterias rubens derived from ArSSP1 (…)]”, for which the “luminescence compared with control” value in the assay on ArSSR1 (setting [9]), in the assay with ArSSR2 (setting [9]) and in the assay with ArSSR3 (setting [9]) was “not significantly different” in each case. The triggering of luminescence entry with ArSSR1 (10^−21 to 10^−4 M), with ArSSR2 (10^−21 to 10^−4 M) and with ArSSR3 (10^−21 to 10^−4 M) was “did not trigger luminescence” each time. The “luminescence response in cells with empty vector” value in assay [7] was “do not trigger luminscence; also recorded: Neither ArSS1 nor ArSS2 elicited responses”.
